One molecule from patent US12172992B2, “Pyrimidines for degrading Bruton's tyrosine kinase” (AbbVie Inc., priority 2022, dated 2024) can be followed below.

The target in the assay is BTK protein in human whole blood (Homo sapiens (Human), UniProt Q06187). The assay can be described thus: Btk protein in human whole blood MSD ELISA based assay (BTK degradation). The assay is classed as cell-based. The note with it: 6 hours, maximum BTK degradation compared to DMSO only treated samples, read-out: hWB BTK dMax (%). The protocol: Btk protein degradation was tested using an Meso Scale Discovery-ELISA system (MSD-ELISA): (1) Test compounds were added to human whole blood; (2) human whole blood cells treated with test compounds were lysed; (3) lysed cells were treated with capture antibody, an antibody to Btk; (4) lysed cells were treated with […] to Btk; and (5) lysed cells were treated with anti-mouse antibody (tagged).
Specifically, about 80 μl of fresh human whole blood from healthy donors was transferred into each well of a 96-well V-bottom plate (Costar, Cat No. 3894). Using a TECAN™ D300e Digital Dispenser (Tecan)), 1:4 serially diluted compounds [(8 pt assay) in DMSO solution (final 0.2%) starting at 3 μM top concentration], were added in duplicate. Thereafter, plates were placed in a 37° C. incubator and incubated for 6 hours.
At the end of incubation, 80 μl of 2×CST lysis buffer (Cell Signaling Technology, Cat No. 9803), prepared from a 10× stock solution, was added per well to lyse the blood. Plates were then sealed with a plate sealer and the samples were frozen overnight at −80° C.
Total amount of BTK protein remaining in the blood samples after compound treatment was measured using MSD-ELISA. After thawing the frozen plates, blood lysates were mixed thoroughly and transferred to small spot high-bind MSD plates (Meso Scale Discovery, Cat No. L45XB-3) and coated with capturing antibody, rabbit anti-human BTK (D3H5) (Cell Signaling Technology, Cat No. 8547CF). Thereafter, primary detection antibody, mouse anti-human BTK monoclonal antibody, (BD Biosciences, Cat No. 611117) and secondary detection antibody, anti-mouse SULFO-TAG (Meso Scale Discovery, Cat No. R32AC-1) were added. The assay plates were read on an MSD S600 plate reader by the addition of 2×MSD read buffer (Meso Scale Discovery, R92TC-1). All reagent transfers, including blood lysis, was conducted using a Biomed i7 liquid handler. From the dose response curves, DC50 values were calculated by averaging data from duplicate experiments. and Curve fitting was done by non-linear regression using GraphPad Prism. The DC50 values are reported in Table 2 in the hWB BTK DC50 (nM) column The Dmax values represent the maximum amount of BTK degradation observed upon compound treatment compared to DMSO only treated samples. The dMax (%) values are reported in Table 2 in the hWB BTK dMax (%) column.

BTK protein in human whole blood, sequence (Q06187 whole entry): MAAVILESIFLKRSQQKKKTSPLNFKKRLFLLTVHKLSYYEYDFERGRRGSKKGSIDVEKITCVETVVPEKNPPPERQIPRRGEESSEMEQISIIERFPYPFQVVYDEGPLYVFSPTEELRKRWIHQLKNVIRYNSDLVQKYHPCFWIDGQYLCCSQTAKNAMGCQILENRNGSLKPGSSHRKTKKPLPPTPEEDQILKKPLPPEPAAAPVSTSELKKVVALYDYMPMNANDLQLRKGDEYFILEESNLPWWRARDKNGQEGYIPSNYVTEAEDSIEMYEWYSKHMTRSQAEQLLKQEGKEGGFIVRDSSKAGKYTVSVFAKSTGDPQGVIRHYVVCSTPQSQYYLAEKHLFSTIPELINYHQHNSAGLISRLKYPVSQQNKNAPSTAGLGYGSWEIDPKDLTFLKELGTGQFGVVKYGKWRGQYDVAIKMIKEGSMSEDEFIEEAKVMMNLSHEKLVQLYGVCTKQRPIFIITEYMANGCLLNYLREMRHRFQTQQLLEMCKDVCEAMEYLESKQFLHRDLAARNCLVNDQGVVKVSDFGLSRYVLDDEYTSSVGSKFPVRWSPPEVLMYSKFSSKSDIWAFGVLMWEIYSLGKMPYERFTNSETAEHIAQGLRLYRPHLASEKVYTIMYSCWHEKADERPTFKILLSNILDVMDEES

For orientation: Dmax means the greatest extent of degradation seen. With `Cc1cc(-c2cc(Nc3ccc(N4CCN(CCc5ccc(N6CCC(=O)NC6=O)cc5)C[C@@H]4C)cn3)ncn2)ccc1[C@@H](C)NC(=O)c1nc(C(C)(C)C)no1` [Example 1, 3-tert-butyl-N-[(1R)-1-{4-[6-({5-[(2S)-4-{2-[4-(2,4-dioxo-1,3-diazinan-1-yl)phenyl]ethyl}-2-methylpiperazin-1-yl]pyridin-2-yl}amino)pyrimidin-4-yl]-2-methylphenyl}ethyl]-1,2,4-oxadiazole-5-carboxamide], the Dmax came to 100%.
